How the values were obtained:
Format in all cases: cell-based
[1] = molecular target: T1, Nuclear factor erythroid 2-related factor 2 (Homo sapiens) (UniProt Q16236); test: Activation of Nrf2 in human HepG2 cells at 2 uM incubated for 12 hrs by ARE-driven luciferase reporter gene assay relative to control
T1 sequence (whole entry): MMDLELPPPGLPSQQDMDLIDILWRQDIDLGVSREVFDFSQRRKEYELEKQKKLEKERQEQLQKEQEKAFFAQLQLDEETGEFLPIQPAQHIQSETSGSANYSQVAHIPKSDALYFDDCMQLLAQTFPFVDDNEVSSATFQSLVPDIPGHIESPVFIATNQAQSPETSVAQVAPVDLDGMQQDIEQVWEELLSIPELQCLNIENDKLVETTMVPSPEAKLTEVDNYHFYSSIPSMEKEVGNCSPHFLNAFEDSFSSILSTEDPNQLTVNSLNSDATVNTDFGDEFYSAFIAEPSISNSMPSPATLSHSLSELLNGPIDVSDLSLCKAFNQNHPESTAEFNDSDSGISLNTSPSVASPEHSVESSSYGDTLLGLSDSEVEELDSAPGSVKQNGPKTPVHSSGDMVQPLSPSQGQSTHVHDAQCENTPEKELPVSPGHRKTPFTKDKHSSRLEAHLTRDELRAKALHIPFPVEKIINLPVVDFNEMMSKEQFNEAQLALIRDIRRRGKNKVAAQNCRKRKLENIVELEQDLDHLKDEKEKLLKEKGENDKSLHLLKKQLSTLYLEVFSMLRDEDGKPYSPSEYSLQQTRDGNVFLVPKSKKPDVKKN

[2] = molecular target: T1, Nuclear factor erythroid 2-related factor 2 (Homo sapiens); test: Activation of Nrf2 in human HepG2 cells at 40 uM incubated for 12 hrs by ARE-driven luciferase reporter gene assay relative to control
[3] = molecular target: T1, Nuclear factor erythroid 2-related factor 2 (Homo sapiens); test: Activation of Nrf2 in human HepG2 cells at 80 uM incubated for 12 hrs by ARE-driven luciferase reporter gene assay relative to control
[4] = molecular target: T1, Nuclear factor erythroid 2-related factor 2 (Homo sapiens); test: Activation of Nrf2 in human HepG2 cells at 20 uM incubated for 12 hrs by ARE-driven luciferase reporter gene assay relative to control
[5] = molecular target: T1, Nuclear factor erythroid 2-related factor 2 (Homo sapiens); test: Activation of Nrf2 in human HepG2 cells at 0.2 uM incubated for 12 hrs by ARE-driven luciferase reporter gene assay relative to control
[6] = molecular target: T1, Nuclear factor erythroid 2-related factor 2 (Homo sapiens); test: Activation of Nrf2 in human HepG2 cells at 5 uM incubated for 12 hrs by ARE-driven luciferase reporter gene assay relative to control
[7] = molecular target: T1, Nuclear factor erythroid 2-related factor 2 (Homo sapiens); test: Activation of Nrf2 in human HepG2 cells at 0.02 uM incubated for 12 hrs by ARE-driven luciferase reporter gene assay relative to control
[8] = molecular target: T1, Nuclear factor erythroid 2-related factor 2 (Homo sapiens); test: Activation of Nrf2 in human HepG2 cells at 160 uM incubated for 12 hrs by ARE-driven luciferase reporter gene assay relative to control

fold change (FC) [1]	fold change (FC) [2]	fold change (FC) [3]	fold change (FC) [4]	fold change (FC) [5]	fold change (FC) [6]	fold change (FC) [7]	fold change (FC) [8]	SMILES
3.35	12.4	12.1	5.47	1.5	4.1	1.09	8.73	Cn1cnc2ccc(-c3noc(-c4ccc5cc[nH]c5c4)n3)cc21
7.51	7.33	6.17	6.28	6.14	4.98	3.81	5.74	CC(C)n1c(=O)[nH]c2cc(-c3noc(C4CCCCC4)n3)ccc21
3.95	8.94	4.88	7.98	2.35	4.38	1.89	2.51	Cc1nc2cc(-c3noc(-c4ccc5[nH]cnc5c4)n3)ccc2o1
			7.08		3.29			Cc1nc2cc(-c3noc(-c4cccnc4)n3)ccc2o1
3.64	8.89	3.08	5.38	3.53	1.94	2.59	3.06	CN(C)c1cccc(-c2nc(-c3ccc4c(c3)[nH]c(=O)n4C3CCCC3)no2)c1
			5.19		3.19			CC(C)n1c(=O)[nH]c2cc(-c3noc(/C=C/c4ccccc4)n3)ccc21
			3.38		1.31			CCOc1ccc(-c2nc(-c3ccc4[nH]c(=O)n(C5CCCC5)c4c3)no2)cc1OCC
4.86	7.03	6.01	7.27	4.19	3.2	3.71	8.4	CCCn1c(=O)[nH]c2cc(-c3noc(C4CCCC4)n3)ccc21
			3.08		1.09			CCOc1ccc(-c2nc(-c3ccc(-c4csc(C)n4)cc3)no2)c(CC)c1
4.64	6.38	9.84	6.64	3.41	4.64	3.08	10.5	Clc1cc(-c2nc(-c3ccc4oc(-c5ccccc5)nc4c3)no2)ccn1
